Results published in patent US20260070895A1, “CRYSTALLINE FORMS” (QUIMATRYX, S.L., priority 2022, published 2026).
Values after ≈ are worked out from the molar mass of the structure shown. Read-outs that look alike come from different tables or passages of the source.

What was measured:
Type in all cases: physicochemical
[1] = Photostability at solid state (chemical purity by HPLC after illumination); conditions: solid-state, unsealed clear glass bottles, forced illumination
Protocol: (§1) The method for determining purity by HPLC—used throughout these examples—used the following parameters:
(§2) The photostability of novel crystalline forms of QTX125 was assessed at solid state and in solution. Where ‘forced illumination’ conditions were used, samples were illuminated at 12 Klux/hour and 2.8 UV W/m^2/hour. Samples were stored at a temperature of 30° C. Following incubation, the chemical purity of QTX125 was measured by HPLC.
(§3) The following index is provided to aid navigation of the data presented in Tables 3.1.1 to 3.3.6: • 3.1.x—Assessment of the photostability of QTX125 Form 2. • 3.2.x—Assessment of the photostability of amorphous QTX125. • 3.3.x—Assessment of the photostability of the QTX125 1:2 L-Lysine adduct. • 3.x.1—Samples (at solid state) stored in unsealed clear glass bottles, subject to forced illumination. • 3.x.2—Samples (at solid state) sealed under nitrogen in clear glass bottles, subject to forced illumination. • 3.x.3—Samples (at solid state) sealed under nitrogen in amber glass bottles, illuminated under ambient laboratory conditions • 3.x.4—Samples (at solid state) sealed under nitrogen in amber glass bottles, subject to forced illumination. • 3.x.5—Samples (in solution) sealed under nitrogen in amber glass bottles, illuminated under ambient laboratory conditions. • 3.x.6—Samples (in solution) sealed under nitrogen in amber glass bottles, subject to forced illumination.

[2] = Photostability in solution (THF and water), HPLC; conditions: in solution (THF and water), sealed under nitrogen in amber glass bottles; for degradation (in words): up to 171 hours
Protocol: as §1, §2, §3

[3] = Aqueous solubility at 37° C. (HPLC of filtered suspension); conditions: 37° C.
Protocol: The solubility of novel crystalline forms of QTX125 was assessed in the following aqueous solutions: (i) phosphate buffer, pH 3.5, 0.9% w/v sodium chloride; (ii) phosphate buffer, pH 6.5, 0.9% w/v sodium chloride; (iii) acetate buffer, pH 4.5, 0.9% w/v sodium chloride; (iv) citro-phosphate buffer, pH 4.5, 0.9% w/v sodium chloride; (v) sodium chloride, 0.9% w/v and (vi) deionised water. All assays were completed at 37° C.
In brief, 30 mg QTX125 was dispensed into vessels followed by 5 mL of the appropriate aqueous buffer. Mixtures were suspended by agitation and heated to 37° C. At various fixed intervals, an 0.4 mL aliquot of the suspension was removed, filtered and diluted for examination by HPLC. A single HPLC reference sample was used.

[4] = ambient laboratory conditions, 0 hours
[5] = ambient laboratory conditions, 3 hours
[6] = ambient laboratory conditions, 26 hours
[7] = ambient laboratory conditions, 171 hours
[8] = ambient laboratory conditions, 171 hours, listed as Form 2
[9] = forced illumination, 171 hours, listed as Form 2
[10] = 0.9% w/v sodium chloride solution, saline or isotonic, thermodynamic from solid, buffer (v) sodium chloride, 0.9% w/v, read-out: concentration of QTX125 (solubility)
[11] = acetate buffer with 0.9% w/v sodium chloride, aqueous buffer, thermodynamic from solid, buffer (iii) acetate buffer, pH 4.5, 0.9% w/v sodium chloride, read-out: concentration of QTX125 (solubility)
[12] = citro-phosphate buffer with 0.9% w/v sodium chloride, aqueous buffer, thermodynamic from solid, buffer (iv) citro-phosphate buffer, pH 4.5, 0.9% w/v sodium chloride, read-out: concentration of QTX125 (solubility)
[13] = phosphate buffer with 0.9% w/v sodium chloride, aqueous buffer, thermodynamic from solid, buffer (i) phosphate buffer, pH 3.5, 0.9% w/v sodium chloride, read-out: concentration of QTX125 (solubility)
[14] = phosphate buffer with 0.9% w/v sodium chloride, aqueous buffer, thermodynamic from solid, buffer (ii) phosphate buffer, pH 6.5, 0.9% w/v sodium chloride, read-out: concentration of QTX125 (solubility)
[15] = thermodynamic from solid, buffer (vi) deionised water, read-out: concentration of QTX125 (solubility)

O=C(NO)c1ccc(CNC(=O)c2[nH]c(-c3ccc(O)cc3)cc2-c2ccoc2)cc1 [QTX125 Form 2, 3-(3-Furyl)-N-{4-[(hydroxyamino)carbonyl]benzyl}-5-(4-hydroxyphenyl)-1H-pyrrole-2-carboxamide]
HPLC peak area, RRT 1.04 ([1]; 171 hours): 9.15% | HPLC peak area, RRT 1.12 ([1]; 171 hours): 0.52% | degradation (in words) ([1]; up to 171 hours): degrade to two principal components | HPLC peak area, QTX125 RRT 1.00 [2, 4]: 98.21% | HPLC peak area, RRT 1.04 [2, 4]: 0.98% | HPLC peak area, QTX125 RRT 1.00 [2, 5]: 97.50% | HPLC peak area, RRT 1.04 [2, 5]: 1.06% | HPLC peak area, QTX125 RRT 1.00 [2, 6]: 97.65% | HPLC peak area, RRT 1.04 [2, 6]: 0.93% | HPLC peak area, QTX125 RRT 1.00 [2, 7]: 91.10% | HPLC peak area, RRT 1.04 [2, 7]: 4.81% | HPLC peak area, RRT 1.12 [2, 7]: 0.83% | HPLC peak area, QTX125 RRT 1.00 [2, 8]: 91.10% | HPLC peak area, RRT 1.04 [2, 8]: 4.81% | HPLC peak area, RRT 1.12 [2, 8]: 0.83% | degradation (in words) ([2]; ambient laboratory conditions): degrade | HPLC peak area, QTX125 RRT 1.00 ([2]; forced illumination, 0 hours): 98.21% | HPLC peak area, RRT 1.04 ([2]; forced illumination, 0 hours): 0.98% | HPLC peak area, QTX125 RRT 1.00 ([2]; forced illumination, 3 hours): 97.30% | HPLC peak area, RRT 1.04 ([2]; forced illumination, 3 hours): 1.07% | HPLC peak area, QTX125 RRT 1.00 ([2]; forced illumination, 26 hours): 96.27% | HPLC peak area, RRT 1.04 ([2]; forced illumination, 26 hours): 1.09% | HPLC peak area, QTX125 RRT 1.00 ([2]; forced illumination, 171 hours): 81.65% | HPLC peak area, RRT 1.04 ([2]; forced illumination, 171 hours): 3.60% | HPLC peak area, RRT 1.12 ([2]; forced illumination, 171 hours): 0.86% | HPLC peak area, QTX125 RRT 1.00 [2, 9]: 81.65% | HPLC peak area, RRT 1.04 [2, 9]: 3.60% | HPLC peak area, RRT 1.12 [2, 9]: 0.86% | degradation (in words) ([2]; forced illumination): degrade | solubility at 1 h [3, 10]: 0.68 µg/mL (≈ 1.63 µM) | solubility at 4 h [3, 10]: 0.26 µg/mL (≈ 0.623 µM) | solubility at 7 h ([3]; 0.9% w/v sodium chloride solution, saline or isotonic, thermodynamic from solid, buffer (v) sodium chloride, 0.9% w/v, 7 hours, read-out: concentration of QTX125 (solubility)): 0.22 µg/mL (≈ 0.527 µM) | solubility at 24 h [3, 10]: 0.81 µg/mL (≈ 1.94 µM) | solubility at 1 h [3, 11]: 0.25 µg/mL (≈ 0.599 µM) | solubility at 4 h [3, 11]: 0.29 µg/mL (≈ 0.695 µM) | solubility at 7 h ([3]; acetate buffer with 0.9% w/v sodium chloride, aqueous buffer, thermodynamic from solid, buffer (iii) acetate buffer, pH 4.5, 0.9% w/v sodium chloride, 7 hours, read-out: concentration of QTX125 (solubility)): 0.19 µg/mL (≈ 0.455 µM) | solubility at 24 h [3, 11]: 0.5 µg/mL (≈ 1.2 µM) | solubility ([3]; aqueous buffers (i) to (v), aqueous buffer, thermodynamic from solid, buffers (i) to (v), 1 to 24 hours, read-out: concentration values range (solubility)): 0.15 to 1.76 µg/mL (≈ 0.359 to 4.22 µM) | concentration of QTX125 (solubility) ([3]; buffer (vi) deionised water, 7 hours): 27.82 µg/mL | solubility (in words) ([3]; buffers (i) to (v)): very low | solubility at 1 h [3, 12]: 0.32 µg/mL (≈ 0.767 µM) | solubility at 4 h [3, 12]: 0.17 µg/mL (≈ 0.407 µM) | solubility at 7 h ([3]; citro-phosphate buffer with 0.9% w/v sodium chloride, aqueous buffer, thermodynamic from solid, buffer (iv) citro-phosphate buffer, pH 4.5, 0.9% w/v sodium chloride, 7 hours, read-out: concentration of QTX125 (solubility)): 0.17 µg/mL (≈ 0.407 µM) | solubility at 24 h [3, 12]: 0.4 µg/mL (≈ 0.958 µM) | PXRD analysis of the solid recovered at 24 hours ([3]; deionised water (vi)): confirmed the entity as Form 2 | solubility at 1 h [3, 13]: 0.77 µg/mL (≈ 1.84 µM) | solubility at 4 h [3, 13]: 0.15 µg/mL (≈ 0.359 µM) | solubility at 7 h ([3]; phosphate buffer with 0.9% w/v sodium chloride, aqueous buffer, thermodynamic from solid, buffer (i) phosphate buffer, pH 3.5, 0.9% w/v sodium chloride, 7 hours, read-out: concentration of QTX125 (solubility)): 0.5 µg/mL (≈ 1.2 µM) | solubility at 24 h [3, 13]: 1.76 µg/mL (≈ 4.22 µM) | solubility at 1 h [3, 14]: 0.33 µg/mL (≈ 0.791 µM) | solubility at 4 h [3, 14]: 0.15 µg/mL (≈ 0.359 µM) | solubility at 7 h ([3]; phosphate buffer with 0.9% w/v sodium chloride, aqueous buffer, thermodynamic from solid, buffer (ii) phosphate buffer, pH 6.5, 0.9% w/v sodium chloride, 7 hours, read-out: concentration of QTX125 (solubility)): 0.34 µg/mL (≈ 0.815 µM) | solubility at 24 h [3, 14]: 0.63 µg/mL (≈ 1.51 µM) | solubility at 1 h [3, 15]: 17.8 µg/mL (≈ 42.6 µM) | solubility at 4 h [3, 15]: 22.4 µg/mL (≈ 53.6 µM) | solubility at 24 h [3, 15]: 16.6 µg/mL (≈ 39.7 µM) | solubility at 7 h ([3]; thermodynamic from solid, deionised water (buffer vi), following 7 hours of incubation, read-out: peak solubility): 27.8 µg/mL (≈ 66.6 µM)
